Measured values taken from US20110159019A1, “2,4-DIAMINOPYRIMIDINE COMPOUND” (priority 2008, published 2011).
Like-named read-outs stand apart in the source and are kept apart here.

Tests used:
Cytochrome P450 (CYP3A4) = target: T1, Cytochrome P450 (CYP3A4) (Homo sapiens, UniProt P08684); experiment: Measurement of cytochrome P450 (CYP3A4) enzyme inhibition activity in human liver microsome (inhibition tests I and II, midazolam substrate); type: in vitro ADME; conditions: for I (%) Remaining Rate I: inhibition test I: 5 μM test compound, 2 μM midazolam, human liver microsome, 37° C. 20 minutes, no preincubation; for II (%) Remaining Rate II: inhibition test II: 5 μM test compound preincubated 30 minutes with human liver microsome and NADPH, then 2 μM midazolam 20 minutes, relative to test I
T1 construct: human liver microsome (0.1 mg protein/mL); from tissue; host or cells: human liver microsomes
T1 sequence (P08684 whole entry): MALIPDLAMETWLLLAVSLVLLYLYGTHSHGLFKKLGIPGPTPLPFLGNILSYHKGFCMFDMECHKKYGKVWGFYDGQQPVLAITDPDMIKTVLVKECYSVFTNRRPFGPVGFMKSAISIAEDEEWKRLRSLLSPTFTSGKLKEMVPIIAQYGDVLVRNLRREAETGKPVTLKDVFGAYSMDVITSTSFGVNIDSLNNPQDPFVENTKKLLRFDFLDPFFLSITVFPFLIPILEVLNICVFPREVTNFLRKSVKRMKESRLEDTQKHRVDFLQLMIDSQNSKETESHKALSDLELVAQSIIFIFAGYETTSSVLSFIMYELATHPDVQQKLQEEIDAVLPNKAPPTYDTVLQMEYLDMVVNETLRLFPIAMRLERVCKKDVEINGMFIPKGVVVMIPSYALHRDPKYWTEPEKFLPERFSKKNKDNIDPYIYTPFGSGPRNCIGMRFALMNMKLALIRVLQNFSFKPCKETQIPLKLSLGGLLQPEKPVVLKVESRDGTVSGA
Description: Test Method 3: Measurement of Cytochrome P450 (CYP3A4) Enzyme Inhibition Activity i) Inhibition Test I (Calculation of Remaining Rate I)
Using a 96-well plate, 2 μM of a substrate (midazolam), 5 μM of a test compound, and human liver microsome (0.1 mg protein/mL) were incubated at 37° C. for 20 minutes in a total amount of 150 μL of a 100 mM phosphate buffer (pH 7.4) containing 0.1 mM EDTA and 1 mM NADPH. Then, the reaction was stopped by adding 130 μl of an aqueous solution containing 80% acetonitrile. Thereafter, the samples were analyzed by LC/MS/MS, and the remaining rates I were calculated using the following equation 1.
Remaining Rate I(%)=Ai,I/Ao,I×100 (Equation 1)
Ai, I=Amount of produced metabolite after reaction in the presence of the test compound in the inhibition test I Ao, I=Amount of produced metabolite after reaction in the absence of the test compound in the inhibition test I ii) Inhibition Test II (Calculation of Remaining Rate II)
Using a 96-well plate, 5 μM of a test compound and human liver microsome (0.1 mg protein/mL) were incubated at 37° C. for 30 minutes in a total amount of 145 μL of a 100 mM phosphate buffer (pH=7.4) containing 0.1 mM EDTA and 1 mM NADPH. Then, 2 μM of midazolam as the substrate was added thereto at a total amount of 150 μL of and incubated at 37° C. for 20 minutes. After the incubation, the reaction was stopped by adding 130 μL of an aqueous solution containing 80% acetonitrile. Thereafter, the samples were analyzed by LC/MS/MS, and the remaining rate II was calculated using the following equation 2.
Remaining Rate II(%)=Ai,II/Ao,II/(Ai,I/Ao,I)×100 (Equation 2)
Ai, II=Amount of produced metabolite after reaction in the presence of the test compound in the inhibition test II […]=Amount of produced metabolite after reaction in the absence of the test compound in the inhibition test II […]
Ex represents No. of the Example Compounds as described below.

Full-length human PKCθ = target: T2, Full-length human PKCθ (Homo sapiens, UniProt Q04759); experiment: Measurement of human PKCθ enzyme inhibition activity (HTRF KinEASE S1 kit); type: biochemical
T2 construct: Full-length human PKCθ (Carna Biosciences, final 31 ng/mL); purchased Carna Biosciences
T2 sequence (Q04759 whole entry): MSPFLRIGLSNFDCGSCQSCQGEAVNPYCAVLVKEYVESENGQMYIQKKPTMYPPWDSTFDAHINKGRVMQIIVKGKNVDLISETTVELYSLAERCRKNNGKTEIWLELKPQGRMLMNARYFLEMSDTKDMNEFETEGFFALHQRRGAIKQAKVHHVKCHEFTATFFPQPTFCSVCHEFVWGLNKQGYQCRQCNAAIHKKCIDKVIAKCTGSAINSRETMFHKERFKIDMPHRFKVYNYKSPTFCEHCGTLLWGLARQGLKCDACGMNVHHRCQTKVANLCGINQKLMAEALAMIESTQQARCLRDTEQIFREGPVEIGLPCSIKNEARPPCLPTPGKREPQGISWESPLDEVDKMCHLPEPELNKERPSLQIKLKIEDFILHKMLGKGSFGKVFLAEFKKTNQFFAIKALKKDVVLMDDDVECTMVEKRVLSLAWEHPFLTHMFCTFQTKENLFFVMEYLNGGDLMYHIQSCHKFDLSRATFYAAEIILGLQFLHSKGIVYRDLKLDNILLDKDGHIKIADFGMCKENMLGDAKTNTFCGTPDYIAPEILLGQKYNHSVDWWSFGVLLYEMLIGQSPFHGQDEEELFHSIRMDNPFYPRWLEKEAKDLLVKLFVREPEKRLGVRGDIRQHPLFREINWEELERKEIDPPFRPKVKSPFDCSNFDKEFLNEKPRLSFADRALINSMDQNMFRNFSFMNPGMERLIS
Description: Test Method 1: Measurement of Human PKCθ Enzyme Inhibition Activity
The test was carried out using a HTRF® KinEASE™ S1 kit (CIS bio). […] Then, 3 μL of an ATP liquid (final 30 μM) was dispensed therein to carry out an enzyme reaction at room temperature for 1 hour.
Ex represents Compound No. of Examples as described later.

[1] = full-length human PKCθ, ATP 30 μM, HTRF, read-out: IC50 (nM), human PKCθ enzyme inhibition

Row | I (%) Remaining Rate I (Cytochrome P450 (CYP3A4)) | II (%) Remaining Rate II (Cytochrome P450 (CYP3A4)) | IC50 (Full-length human PKCθ; [1]) | Structure (SMILES) | IC50 (Full-length human PKCθ)
1 | 90% | 92% | 0.25 nM | N#Cc1cnc(NCc2ccccc2Cl)nc1NC[C@]12CC3C[C@H](C1)[C@@H](NCC1CCNCC1)[C@@H](C3)C2 [Example 321] | 
2 | 75% | 88% | 0.065 nM | N#Cc1cnc(NCc2ccccc2OC(F)(F)F)nc1NC[C@]12CC3C[C@H](C1)[C@@H](N[C@H]1CC[C@@H](N)CC1)[C@@H](C3)C2 [Example 303] | 
3 | 84% | 89% | 0.65 nM | N#Cc1cnc(NCc2ccccc2Cl)nc1NC[C@]12CC3C[C@H](C1)[C@@H](NC[C@H]1CC[C@@H](O)CC1)[C@@H](C3)C2 (relative stereo) [Example 401] | 
4 | 89% | 84% | 0.48 nM | CSc1ncccc1CNc1ncc(C#N)c(NC[C@]23CC4C[C@H](C2)[C@@H](NC[C@H]2CC[C@H](O)CC2)[C@@H](C4)C3)n1 (relative stereo) [Example 344] | 
5 | 78% | 84% | 1.22 nM | C[C@]1(O)CC[C@H](CN[C@@H]2[C@@H]3CC4C[C@H]2C[C@@](CNc2nc(NCc5ccccc5OC(F)F)ncc2C#N)(C4)C3)CC1 (relative stereo) [Example 372] | 
6 | 95% | 85% | 0.28 nM | CSc1ccccc1CNc1ncc(C#N)c(NC[C@]23CC4C[C@H](C2)[C@@H](NCC[C@H](O)CO)[C@@H](C4)C3)n1 (relative stereo) [Example 200] | 
7 | 91% | 83% | 1.4 nM | N#Cc1cnc(NCc2ccccc2Cl)nc1NC[C@]12CC3C[C@H](C1)[C@@H](NC[C@H]1CC[C@H](O)CC1)[C@@H](C3)C2 (relative stereo) [Example 340] | 
8 | 88% | 82% | 3.3 nM | COc1ccccc1CNc1ncc(C#N)c(NC[C@]23CC4C[C@H](C2)[C@@H](NCC[C@H](O)CO)[C@@H](C4)C3)n1 (relative stereo) [Example 195] | 
9 | 86% | 87% | 3.9 nM | COc1ccccc1CNc1ncc(C#N)c(NC[C@]23CC4C[C@H](C2)[C@@H](N2CC(CO)(CO)C2)[C@@H](C4)C3)n1 (relative stereo) [Example 196] | 
10 |  |  | 1.7 nM | COc1ccccc1CNc1ncc(C#N)c(NC[C@]23CC4C[C@H](C2)[C@@H](NCC(O)CCO)[C@@H](C4)C3)n1 (stereo partly drawn) [Example 189] | 

More lines, now with the values behind:

Row | Structure (SMILES) | I (%) Remaining Rate I (Cytochrome P450 (CYP3A4)) | II (%) Remaining Rate II (Cytochrome P450 (CYP3A4)) | IC50 (Full-length human PKCθ; [1]) | IC50 (Full-length human PKCθ)
11 | COc1ccccc1CNc1ncc(C#N)c(NC[C@]23CC4C[C@H](C2)[C@@H](N(C)CCCCO)[C@@H](C4)C3)n1 [Example 107] | 77% | 84% | 5.4 nM | 
12 | N#Cc1cnc(NCc2ccccc2Cl)nc1NC[C@]12CC3C[C@H](C1)[C@@H](NCC1CCN(CCF)CC1)[C@@H](C3)C2 [Example 219] | 76% | 94% |  | 0.4 nM
13 | N#Cc1cnc(NCc2ccccc2OC(F)(F)F)nc1NC[C@]12CC3C[C@H](C1)[C@H](N[C@H]1CC[C@H](O)CC1)[C@@H](C3)C2 (relative stereo) [Example 41, rel-4-[({(1R,3S,4R,5R)-4-[(trans-4-hydroxycyclohexyl)amino]adamantan-1-yl}methyl)amino]-2-{[2-(trifluoromethoxy)benzyl]amino}pyrimidine-5-carbonitrile] | 80% | 102% | 14 nM | 
14 | CN([C@H]1CC[C@H](O)CC1)[C@@H]1[C@@H]2CC3C[C@H]1C[C@@](CNc1nc(NCc4ccccc4OC(F)(F)F)ncc1C#N)(C3)C2 [Example 115] | 75% | 90% | 3.5 nM | 
15 | N#Cc1cnc(NCc2ccccc2Cl)nc1NC[C@]12CC3C[C@H](C1)[C@@H](NC1CCNCC1)[C@@H](C3)C2 [Example 169] | 83% | 89% | 0.36 nM | 
16 | N#Cc1cnc(NCc2ccccc2OC(F)(F)F)nc1NC[C@]12CC3C[C@H](C1)[C@@H](N1CCC(O)C1)[C@@H](C3)C2 (stereo partly drawn) [Example 11] |  |  | 1 nM | 
17 | CSc1ccccc1CNc1ncc(C#N)c(NC[C@]23CC4C[C@H](C2)[C@@H](N[C@H]2CC[C@H](O)CC2)[C@@H](C4)C3)n1 (relative stereo) [Example 43, rel-4-[({(1R,3S,4R,5R)-4-[(trans-4-hydroxycyclohexyl)amino]adamantan-1-yl]methyl)amino}-2-{[2-(methylsulfanyl)benzyl]amino}pyrimidine-5-carbonitrile] | 76% | 99% | 0.44 nM | 
18 | CN(C)[C@@H]1[C@@H]2CC3C[C@H]1C[C@@](CNc1nc(NCc4ccccc4OC(F)(F)F)ncc1C#N)(C3)C2 (relative stereo) [Example 70] |  |  | 1.9 nM | 
